Experiment: discoloration / colour of aqueous NHDC solution
Assay type: physicochemical
Conditions: over a period of time
Source text: The preferred acidulants are weak organic C1 -C6 organic mono- or di-carboxylic acids.
The acidulant-like malic or citric acid is incorporated to lower the pH to less than 6.5, in order to remove the yellow color formed in aqueous solutions of NHDC-based compositions.

Question: With `COc1ccc(CCC(=O)c2c(O)cc(O[C@@H]3O[C@H](CO)[C@@H](O)[C@H](O)[C@H]3O[C@@H]3O[C@@H](C)[C@H](O)[C@@H](O)[C@H]3O)cc2O)cc1O` [NHDC, Neohesperidin dihydrochalcone] as the molecule, how does the “discoloration of aqueous NHDC solution” value read?
Answer: The value was “yellow discoloration”.
